Reference: ChEMBL document CHEMBL4619758, “Discovery of 3-({5-Chloro-1-[3-(methylsulfonyl)propyl]-1H-indol-2-yl}methyl)-1-(2,2,2-trifluoroethyl)-1,3-dihydro-2H-imidazo[4,5-c]pyridin-2-one (JNJ-53718678), a Potent and Orally Bioavailable Fusion Inhibitor of Respiratory Syncytial Virus” (J Med Chem, 2020)
≈ marks a conversion by molar mass, not a printed value.

Tests used:
[1] = Cytotoxicity against human HeLa cells assessed as reduction in cell viability after 3 days by ATPlite assay
[2] = Metabolic stability in human liver microsomes assessed as compound metabolized after 15 mins; type: ADME, Microsome; conditions: read-out: Drug metabolism
[3] = Aqueous solubility of the compound; type: physicochemical; conditions: buffer
[4] = Metabolic stability in rat liver microsomes assessed as compound metabolized after 15 mins; type: ADME, Microsome; conditions: read-out: Drug metabolism
[5] = Metabolic stability in dog liver microsomes assessed as compound metabolized after 15 mins; type: ADME, Canis lupus familiaris, Microsome; conditions: read-out: Drug metabolism
[6] = Clearance in Sprague-Dawley rat plasma at 2.5 mg/kg, iv; type: ADME, organism-based
[7] = Ratio of AUC (0 to last) in lung to plasma of Sprague-Dawley rat at 2.5 mg/kg, iv or 10 mg/kg, po; type: ADME, organism-based; conditions: lung and plasma, read-out: Ratio AUC
[8] = Oral bioavailability in Sprague-Dawley rat at 10 mg/kg; type: ADME, organism-based; conditions: in vivo
[9] = Clearance in dog plasma at 1 mg/kg, iv; type: ADME, organism-based, Canis lupus familiaris
[10] = Oral bioavailability in dog at 5 mg/kg; type: ADME, organism-based, Canis lupus familiaris; conditions: in vivo
[11] = Protein binding in human plasma assessed as unbound fraction; type: ADME, cell-free
[12] = system: Respiratory syncytial virus; test: Antiviral activity against RSV Long infected in po dosed cotton rat model assessed as reduction in viral titer in broncho alveolar lavage fluid pretreated for 1 hr followed by viral infection measured after 4 days by plaque reduction assay; type: functional, organism-based; conditions: for EC50: human respiratory syncytial virus
[13] = system: Respiratory syncytial virus; test: Antiviral activity against RSV Long infected in po dosed cotton rat model assessed as reduction in viral titer in lung lavage fluid pretreated for 1 hr followed by viral infection measured after 4 days by plaque reduction assay; type: functional, organism-based; conditions: for EC50: human respiratory syncytial virus
[14] = Clearance in dog plasma at 1 mg/kg, iv relative to liver blood flow; type: ADME, organism-based, Canis lupus familiaris; conditions: in vivo
[15] = Clearance in Sprague-Dawley rat at 2 mg/kg, iv administered as single dose; type: ADME, organism-based; conditions: in vivo
[16] = Volume of distribution at steady state in Sprague-Dawley rat at 2 mg/kg, iv administered as single dose; type: ADME, organism-based; conditions: in vivo, read-out: Vdss
[17] = Cmax in Sprague-Dawley rat at 10 mg/kg, po administered as single dose; type: ADME, organism-based; design: dose 10 mg/kg, route oral; conditions: in vivo
[18] = AUC in Sprague-Dawley rat at 10 mg/kg, po administered as single dose; type: ADME, organism-based; conditions: in vivo
[19] = Absolute oral bioavailability in Sprague-Dawley rat at 10 mg/kg administered as single dose; type: ADME, organism-based; conditions: in vivo
[20] = Ratio of AUC (0 to last) in lung to plasma of Sprague-Dawley rat at 10 mg/kg, po administered as single dose; type: ADME, organism-based; conditions: lung and plasma, read-out: Ratio AUC
[21] = Clearance in Sprague-Dawley rat at 2 mg/kg, iv administered as single dose relative to liver blood flow; type: ADME, organism-based; conditions: in vivo
CYP3A4 = CYP3A4 (Homo sapiens, UniProt P08684); test: Time-dependent inhibition of CYP3A4 in human liver microsomes assessed as ratio of IC50 in presence and absence of NADPH using testosterone as substrate; type: ADME; conditions: probe testosterone, read-out: Ratio IC50
Cytochrome P450 3A4 = Cytochrome P450 3A4 (Homo sapiens, UniProt P08684); test: Time-dependent inhibition of CYP3A4 in human liver microsomes using testosterone as substrate; type: ADME
Cytochrome P450 3A4, sequence (P08684 whole entry): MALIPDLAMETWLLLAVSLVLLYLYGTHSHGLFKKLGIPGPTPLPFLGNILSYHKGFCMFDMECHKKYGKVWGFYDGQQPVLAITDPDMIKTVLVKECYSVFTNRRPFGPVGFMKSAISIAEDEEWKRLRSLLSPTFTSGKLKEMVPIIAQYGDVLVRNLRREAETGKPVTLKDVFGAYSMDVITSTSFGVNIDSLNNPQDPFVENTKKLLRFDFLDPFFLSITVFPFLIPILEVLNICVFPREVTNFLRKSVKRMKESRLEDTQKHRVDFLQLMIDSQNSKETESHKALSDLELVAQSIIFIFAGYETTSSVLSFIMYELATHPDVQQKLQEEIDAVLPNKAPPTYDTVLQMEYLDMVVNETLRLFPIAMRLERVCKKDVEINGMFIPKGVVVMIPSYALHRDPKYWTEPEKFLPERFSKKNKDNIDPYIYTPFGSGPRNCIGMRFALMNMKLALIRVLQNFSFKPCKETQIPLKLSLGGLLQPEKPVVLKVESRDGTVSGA

CYP3A4, sequence (P08684 whole entry): as above

SMILES	CC50 at 72 h [1] [µM]	metabolised at 0.25 h [2] [%]	metabolised at 0.25 h [4] [%]	metabolised at 0.25 h [5] [%]	clearance [6] [mL/min/kg]	Kp [7]	bioavailability [8] [%]	clearance [9] [mL/min/kg]	bioavailability [10] [%]	fraction unbound [11]	Activity [12]	EC50 [12] [µg/mL]	Activity [13]	EC50 [13] [µg/mL]	CL [14] [%]	further results
CS(=O)(=O)c1ccc(-n2c(=O)n(Cc3cc4cc(Cl)ccc4n3CCCC#N)c3cnccc32)cc1	> 50	9														solubility [3]: Insoluble
COc1ccc(-n2c(=O)n(Cc3cc4cc(Cl)ccc4n3CCCC#N)c3cnccc32)cc1	> 50	20	40	96	16.2	1.3	86	24.8	9	0.005	Dose-dependent effect	0.499 (≈ 1.06 µM)	Dose-dependent effect	0.121 (≈ 0.256 µM)	90	
COc1ccc(-n2c(=O)n(Cc3cc4cc(Cl)ccc4n3CCCC#N)c3cnccc32)cc1OC	> 50	19	74	56	31.7	2.5	32	14.3	26	0.008	Dose-dependent effect	0.18 (≈ 0.359 µM)	Dose-dependent effect	0.157 (≈ 0.313 µM)	50	
O=c1n(Cc2cc3cnccc3n2CCCC(F)(F)F)c2cnccc2n1C1CC1	> 50	21	80							0.472						clearance [15]: 75 mL/min/kg; Vd [16]: 3.3 L/kg; Cmax [17]: 532 ng/mL; AUC [18]: 545 ng·h/mL; bioavailability [19]: 28%; Kp [20]: 11; CL [21]: > 100%
CS(=O)(=O)CCCn1c(Cn2c(=O)n(C3CC3)c3ccncc32)cc2cc(Cl)ccc21	> 50	18														IC50 shift (CYP3A4): 18
CS(=O)(=O)CCCn1c(Cn2c(=O)n(CC(F)(F)F)c3ccncc32)cc2cc(Cl)ccc21 [RILEMATOVIR]	> 50	1	60	28	65	3.5	42	8.5		0.06	Dose-dependent effect	0.075 (≈ 0.15 µM)	Dose-dependent effect	0.081 (≈ 0.162 µM)		TDI (Cytochrome P450 3A4): Not Active
